This is an account of results in US20240108753A1, “NUCLEIC ACID DELIVERY” (NUNTIUS THERAPEUTICS LIMITED, priority 2021, published 2024).

The nature of this data set: Hydrodynamic size, polydispersity index and zeta potential of dendrimer, lipid and mRNA complexes. The data set is classed as physicochemical. Particulars: DOTMA/DOPE w/w 10:1 to mRNA; for Hydrodynamic size: dendrimer, lipid and mRNA complexes. The procedure: The hydrodynamic size, polydispersity index and Zeta potential was determined for a set of the dendrimers disclosed in Tables 1 and 2.

Take “(BR)8(KRB)4(KRX)2KGSC-NH2 [G1-RX, 2-RB, 3-BR]”: where the note is “N:P 0.16:1”, the “Polydispersity Index (PDI)” value was 0.108, the “Zeta Potential” value came out at 41 mV and the Hydrodynamic size is 130 nm. Besides, under “N:P 8:1”, the “Polydispersity Index (PDI)” value is recorded as 0.403, the “Zeta Potential” value came out at 56 mV and the Hydrodynamic size amounted to 70 nm.

On to “(FR)8(KRQ)4(KRW)2KGSC-NH2 [G1-RW, 2-RQ, 3-FR]”, for which, for the setting “N:P 0.16:1”, the “Polydispersity Index (PDI)” value was found to be 0.146, the “Zeta Potential” value was 37 mV and the Hydrodynamic size is listed as 133 nm. In addition, for the setting “N:P 8:1”, the “Polydispersity Index (PDI)” value was 0.452, the “Zeta Potential” value worked out at 51 mV and the Hydrodynamic size turned out to be 105 nm.

Regarding “(HK)8(KKH)4(KKL)2KGSC-NH2 [G1-KL, 2-KH, 3-HK]”, under “N:P 0.16:1”, the “Polydispersity Index (PDI)” value was 0.237, the “Zeta Potential” value was 35 mV and the Hydrodynamic size was found to be 131 nm. Also, for the setting “N:P 8:1”, the “Polydispersity Index (PDI)” value is reported as 0.126, the “Zeta Potential” value stood at 49 mV and the Hydrodynamic size worked out at 103 nm.

Take “(LR)8(DabRL)4(DabRL)2DabGSC-NH2 [DabG1,2-RL, 3-LR]”: under “N:P 0.16:1”, the “Polydispersity Index (PDI)” value is listed as 0.117, the “Zeta Potential” value worked out at 34 mV and the Hydrodynamic size was found to be 124 nm. Further, for the setting “N:P 8:1”, the “Polydispersity Index (PDI)” value stood at 0.286, the “Zeta Potential” value is reported as 57 mV and the Hydrodynamic size is 78 nm.

On to “(LR)8(KR)4(KRLR)2KRHC-NH2 [RHCG1-RLR, 2-R, 3-LR]”, for which, under “N:P 0.16:1”, the “Polydispersity Index (PDI)” value is 0.136, the “Zeta Potential” value is on record as 41 mV and the Hydrodynamic size came out at 121 nm. For the setting “N:P 8:1”, the “Polydispersity Index (PDI)” value is 0.439, the “Zeta Potential” value is given as 59 mV and the Hydrodynamic size was found to be 75 nm.

Regarding “(LR)8(KR)4(KRLRL)2KRHC-NH2 [RHCG1-RLRL, 2-R, 3-LR]”, where the note is “N:P 0.16:1”, the “Polydispersity Index (PDI)” value is 0.131, the “Zeta Potential” value is reported as 43 mV and the Hydrodynamic size is reported as 135 nm. Besides, under “N:P 8:1”, the “Polydispersity Index (PDI)” value is given as 0.37, the “Zeta Potential” value came to 56 mV and the Hydrodynamic size amounted to 78 nm.

As to “(LR)8(KRL)4(KRE)2KGSC-NH2 [G1-RE, 2-RL, 3-LR]”, under “N:P 0.16:1”, the “Polydispersity Index (PDI)” value is on record as 0.096, the “Zeta Potential” value came to 45 mV and the Hydrodynamic size was determined as 134 nm. Further, under “N:P 8:1”, the “Polydispersity Index (PDI)” value was 0.158, the “Zeta Potential” value is recorded as 53 mV and the Hydrodynamic size is 96 nm.

With “(LR)8(KRL)4(KRL)2KA-NH2 [KAG1,2-RL, 3-LR]”, under “N:P 0.16:1”, the “Polydispersity Index (PDI)” value stood at 0.136, the “Zeta Potential” value was determined as 47 mV and the Hydrodynamic size stood at 125 nm. Further, where the note is “N:P 8:1”, the “Polydispersity Index (PDI)” value came out at 0.184, the “Zeta Potential” value was 51 mV and the Hydrodynamic size is listed as 76 nm.

In the case of “(LR)8(KRL)4(KRL)2KRFW-NH2 [RFWG1,2-RL, 3-LR]”, where the note is “N:P 0.16:1”, the “Polydispersity Index (PDI)” value worked out at 0.152, the “Zeta Potential” value amounted to 39 mV and the Hydrodynamic size was 120 nm. Besides, for the setting “N:P 8:1”, the “Polydispersity Index (PDI)” value was 0.401, the “Zeta Potential” value was 55 mV and the Hydrodynamic size is 91 nm.

As for “(LR)8(KRL)4(KRL)2KRHC-NH2 [RHCG1,2-RL,3-LR]”, for the setting “N:P 0.16:1”, the “Polydispersity Index (PDI)” value is given as 0.11, the “Zeta Potential” value was 44 mV and the Hydrodynamic size is 134 nm. Also, under “N:P 8:1”, the “Polydispersity Index (PDI)” value is 0.363, the “Zeta Potential” value stood at 50 mV and the Hydrodynamic size came to 58 nm.

“(LR)8(KRL)4(KRL)2KRYM-NH2 [RYMG1,2-RL, 3-LR]”: for the setting “N:P 0.16:1”, the “Polydispersity Index (PDI)” value is given as 0.137, the “Zeta Potential” value is on record as 43 mV and the Hydrodynamic size was 133 nm. For the same substance, under “N:P 8:1”, the “Polydispersity Index (PDI)” value amounted to 0.257, the “Zeta Potential” value was found to be 56 mV and the Hydrodynamic size was 68 nm.
